pIC50: −log10 of the molar value. The source made the active and inactive calls. The calls are words filed in the database; no cut-off is given here.

Our source for the IC50, inhibition and Activity values is ChEMBL document CHEMBL5154900, “Design and Synthesis of Dual EZH2/BRD4 Inhibitors to Target Solid Tumors” (J Med Chem, 2022).

The test system of one assay is ASPC1. In words: Antiproliferative activity against human ASPC1 cells assessed as cell growth inhibition incubated for 6 days by MTS assay. Particulars: ASPC1, 144 h. In kind it is functional, cell-based. On the technique in general: Tetrazolium dyes change colour on reduction, which living cells bring about.
Assay [1] addresses T1, Histone-lysine N-methyltransferase EZH2 (Homo sapiens, UniProt Q15910).
Target sequence in this assay (Q15910 whole entry, the tested form may be a part): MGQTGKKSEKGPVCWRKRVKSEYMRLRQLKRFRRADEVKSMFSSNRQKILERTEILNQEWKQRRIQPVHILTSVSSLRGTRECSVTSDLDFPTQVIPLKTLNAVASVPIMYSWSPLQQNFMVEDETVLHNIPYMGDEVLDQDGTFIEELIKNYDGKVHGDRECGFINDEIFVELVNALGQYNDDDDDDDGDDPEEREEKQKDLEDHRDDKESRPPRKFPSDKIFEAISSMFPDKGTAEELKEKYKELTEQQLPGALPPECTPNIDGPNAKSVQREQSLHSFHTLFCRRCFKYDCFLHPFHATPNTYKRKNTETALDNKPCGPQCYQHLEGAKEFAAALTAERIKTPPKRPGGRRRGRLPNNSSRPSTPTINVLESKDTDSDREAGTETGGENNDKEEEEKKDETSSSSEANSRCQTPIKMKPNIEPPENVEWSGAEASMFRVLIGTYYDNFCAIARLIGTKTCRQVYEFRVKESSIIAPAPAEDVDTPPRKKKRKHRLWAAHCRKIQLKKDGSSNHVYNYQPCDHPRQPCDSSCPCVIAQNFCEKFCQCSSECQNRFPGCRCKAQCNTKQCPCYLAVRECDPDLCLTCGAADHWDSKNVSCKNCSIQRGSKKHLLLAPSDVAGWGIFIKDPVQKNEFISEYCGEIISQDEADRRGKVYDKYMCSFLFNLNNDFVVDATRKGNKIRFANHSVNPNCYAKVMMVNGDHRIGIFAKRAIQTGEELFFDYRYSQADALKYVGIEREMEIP
Assay [2] has as its target T2, Bromodomain-containing protein 4 (Homo sapiens, UniProt O60885). Description: Displacement of fluorescein-labeled JQ1 from His6/TEV cleavage site fused human BRD4 (residues N44 to E168) expressed in Escherichia coli BL21 (DE3) incubated for 60 min by Fluorescence polarization assay. (In general: Polarisation of emitted light reports the rotation of a fluorescent probe.)

Assay [3] addresses T1, Histone-lysine N-methyltransferase EZH2. Description: Inhibition of EZH2 in human ASPC1 cells assessed as decrease in H3K27me3 levels at 1 uM incubated for 72 hrs by Western blot analysis. Format: cell-based. For orientation: Immunoblotting shows a protein as a band on a membrane.
Target sequence in this assay (Q15910 whole entry, looked up, the tested form may be a part): as the sequence (Q15910 whole entry, the tested form may be a part) above
For assay [4], the target named is T2, Bromodomain-containing protein 4. Description: Inhibition of BRD4 in human ASPC1 cells assessed as decrease in c-Myc level at 1 uM incubated for 72 hrs by Western blot analysis. In kind it is cell-based.
In the next assay the test system is HCT-116. Description: Induction of apoptosis in human HCT116 cells assessed as early apoptotic cells at 10 uM measured after 72 hrs by flow cytometry (reference value: 2.8 %). In kind it is functional.

For the compound `CCN(c1cc(-c2ccc(NC(=O)CCCCCCNC(=O)C[C@@H]3N=C(c4ccc(Cl)cc4)c4c(sc(C)c4C)-n4c(C)nnc43)cc2)cc(C(=O)NCc2c(C)cc(C)[nH]c2=O)c1C)C1CCOCC1`, the figures for the pIC50 (with ASPC1 (read-out: IC50); in assay [1]; in assay [2]) were 4.95, 6.28 and 6.24, respectively.
The corresponding values for `CCN(c1cc(-c2ccc(NC(=O)C[C@@H]3N=C(c4ccc(Cl)cc4)c4c(sc(C)c4C)-n4c(C)nnc43)cc2)cc(C(=O)NCc2c(C)cc(C)[nH]c2=O)c1C)C1CCOCC1` are 4.86, 4.79 and 5.55.
The corresponding values for `CCN(c1cc(-c2ccc(NC(=O)CCOCCOCCOCCNC(=O)C[C@@H]3N=C(c4ccc(Cl)cc4)c4c(sc(C)c4C)-n4c(C)nnc43)cc2)cc(C(=O)NCc2c(C)cc(C)[nH]c2=O)c1C)C1CCOCC1` are 5.03, 5.98 and 6.22.
On to `CCN(c1cc(-c2ccc(CNC(=O)C[C@@H]3N=C(c4ccc(Cl)cc4)c4c(sc(C)c4C)-n4c(C)nnc43)cc2)cc(C(=O)NCc2c(C)cc(C)[nH]c2=O)c1C)C1CCOCC1`, for which the inhibition entry in assay [3] was “Active”. Moreover, the pIC50 (in general, −log10 of the IC50, conventionally taken in molar units) was 5.19 in the assay on ASPC1 (read-out: IC50), 4.53 in assay [1] and 5.83 in assay [2].
As to `CCN(c1cc(-c2ccc(OCCCCNC(=O)C[C@@H]3N=C(c4ccc(Cl)cc4)c4c(sc(C)c4C)-n4c(C)nnc43)cc2)cc(C(=O)NCc2c(C)cc(C)[nH]c2=O)c1C)C1CCOCC1`, the inhibition result in assay [3] and in assay [4] was “Active” in each case. For the same compound, the values for the pIC50 (with ASPC1 (read-out: IC50); in assay [1]; in assay [2]) were 6.00, 6.38 and 7.09, respectively.
`CCN(c1cc(-c2ccc(CN3CCOCC3)cc2)cc(C(=O)NCc2c(C)cc(C)[nH]c2=O)c1C)C1CCOCC1` [TAZEMETOSTAT]: the Activity with HCT-116 is listed as 2.8%. The pIC50 with ASPC1 (read-out: IC50) is under 4.52.
Turning to `CCN(c1cc(-c2ccc(C(=O)NCCOCCNC(=O)C[C@@H]3N=C(c4ccc(Cl)cc4)c4c(sc(C)c4C)-n4c(C)nnc43)cc2)cc(C(=O)NCc2c(C)cc(C)[nH]c2=O)c1C)C1CCOCC1`, the inhibition result in assay [3] is “Active”. In addition, the values for the pIC50 (in the assay with ASPC1 (read-out: IC50); in assay [1]; in assay [2]) were 5.15, 6.52 and 6.61, respectively.
With `CCN(c1cc(-c2ccc(OCCNC(=O)C[C@@H]3N=C(c4ccc(Cl)cc4)c4c(sc(C)c4C)-n4c(C)nnc43)cc2)cc(C(=O)NCc2c(C)cc(C)[nH]c2=O)c1C)C1CCOCC1`, the inhibition entry in assay [4] is “Active”. Moreover, the values for the pIC50 (with ASPC1 (read-out: IC50); in assay [1]; in assay [2]) were 5.73, 5.12 and 5.81, respectively.
The corresponding values for `CCN(c1cc(-c2ccc(OCCCNC(=O)C[C@@H]3N=C(c4ccc(Cl)cc4)c4c(sc(C)c4C)-n4c(C)nnc43)cc2)cc(C(=O)NCc2c(C)cc(C)[nH]c2=O)c1C)C1CCOCC1` are “Active”, 5.86, 6.01 and 5.76.
`CCN(c1cc(-c2ccc(NC(=O)CCCCCCCNC(=O)C[C@@H]3N=C(c4ccc(Cl)cc4)c4c(sc(C)c4C)-n4c(C)nnc43)cc2)cc(C(=O)NCc2c(C)cc(C)[nH]c2=O)c1C)C1CCOCC1`: the values for the pIC50 (in the assay with ASPC1 (read-out: IC50); in assay [1]; in assay [2]) were 4.76, 6.26 and 5.63, respectively.
On to `CCN(c1cc(-c2ccc(CCNC(=O)C[C@@H]3N=C(c4ccc(Cl)cc4)c4c(sc(C)c4C)-n4c(C)nnc43)cc2)cc(C(=O)NCc2c(C)cc(C)[nH]c2=O)c1C)C1CCOCC1`, for which the inhibition result in assay [3] is “Active”. Also, the pIC50 is 5.58 with ASPC1 (read-out: IC50), 4.11 in assay [1] and 6.02 in assay [2].
For `Cc1sc2c(c1C)C(c1ccc(Cl)cc1)=N[C@@H](CC(=O)OC(C)(C)C)c1nnc(C)n1-2`, the Activity in the assay with HCT-116 turned out to be 20.3%. Besides, the pIC50 in the assay on ASPC1 was 5.47.
